# Test results reported in US10138233B2, “Imidazole compounds as modulators of FSHR and uses thereof” (Merck Patent GmbH, priority 2013, dated 2018).
# Biological target: T1, FSHR (Homo sapiens, UniProt P23945)
# T1 construct: expressed in transfected cells; host or cells: CHO cells, clone Cho-FSHR-LUC-1-1-43
# T1 sequence (P23945 18-695): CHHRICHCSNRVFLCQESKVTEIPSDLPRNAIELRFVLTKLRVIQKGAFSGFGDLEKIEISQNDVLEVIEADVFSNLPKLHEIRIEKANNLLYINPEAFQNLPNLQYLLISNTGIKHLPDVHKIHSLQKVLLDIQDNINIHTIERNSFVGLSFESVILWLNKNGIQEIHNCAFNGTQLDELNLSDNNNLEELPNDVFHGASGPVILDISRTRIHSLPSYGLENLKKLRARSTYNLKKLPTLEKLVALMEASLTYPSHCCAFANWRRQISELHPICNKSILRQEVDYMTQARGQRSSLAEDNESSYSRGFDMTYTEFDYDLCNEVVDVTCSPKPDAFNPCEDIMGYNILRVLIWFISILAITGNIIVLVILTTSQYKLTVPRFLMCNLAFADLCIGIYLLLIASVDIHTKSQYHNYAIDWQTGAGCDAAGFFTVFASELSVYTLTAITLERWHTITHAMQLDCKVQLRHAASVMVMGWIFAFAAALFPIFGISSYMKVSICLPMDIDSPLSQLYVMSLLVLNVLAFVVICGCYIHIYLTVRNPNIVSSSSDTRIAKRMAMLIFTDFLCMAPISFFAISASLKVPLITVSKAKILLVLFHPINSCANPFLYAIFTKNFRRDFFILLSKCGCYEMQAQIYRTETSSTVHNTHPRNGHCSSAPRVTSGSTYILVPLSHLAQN
# Experiment: EC50 of cyclic AMP production in CHO FSHR cells + EC20 FSH (Assay A)
# Format: cell-based
# Conditions: CHO-FSHR-LUC cells, in presence of EC20 FSH, cAMP HTRF, 1 h 37° C.
# Method: EC50 of cyclic AMP production in CHO FSHR cells+EC20 FSH (Assay A)
# 2500 Cho-FSHR-LUC-1-1-43 cells were plated per well in 5 μl of phenol red free DMEM/F12+1% FBS. […] Cells were assayed by adding 100 μl of 2×EC20 FSH/IBMX in DMEM/F12+0.1% BSA) by Multidrop to 2 μl of test compound stamped in 384 well plates (compounds are diluted 1:50). […] The compound plate map was as follows: Column 1: 2 μl of DMSO; Column 2: 2 μl of DMSO; Columns 3-12 and 13-24: 2 μl of test compound, diluted 1:4 in 100% DMSO, or 2 μl of FSH, diluted 1:4 in DMEM/F12+0.1% BSA. The starting concentration for FSH was 50 nM (final concentration was 0.5 nM). […] 10 μl of mixed HTRF (CisBio #62AM4PEC) reagents were added per well and incubated at room temperature for 1 h. The plates were read on Envision using the cAMP HTRF—low volume 384 well protocol. […] Values given in percent (%) indicate the percental effect (response) at a certain concentration of agonist relative to the maximum response of the FSH standard.
row,SMILES,EC50 [nM]
1,"COc1cc2c(cc1CC(C)C)-n1c(C3CCOC3)nc(C(=O)N(C)C(C)(C)C)c1CC2 (centres unmarked) [Compound 94, N-(tert-butyl)-8-isobutyl-7-methoxy-N-methyl-1-(tetrahydrofuran-3-yl)-4,5-dihydroimidazo[1,5-a]quinoline-3-carboxamide]",1000 to 5000
2,COc1cc(-c2nc(C(=O)N3CCOCC3(C)C)c3n2-c2cc(OC(C)C)c(OC)cc2CC3)ccc1F [Compound 108],1000 to 5000
3,COc1cc2c(cc1OC(C)C)-n1c(-c3ccc(F)c(Cl)c3)nc(C(=O)N3CCOCC3(C)C)c1CC2 [Compound 116],100 to 1000
4,"COc1cc2c(cc1CC(C)C)-n1c(-c3cccs3)nc(C(=O)NC(C)(C)CO)c1CC2 [Compound 24, 8-Isobutyl-7-methoxy-1-thiophen-2-yl-4,5-dihydro-imidazo[1,5-a]quinoline-3-carboxylic acid (2-hydroxy-1,1-dimethyl-ethyl)-amide]",1000 to 5000
5,COc1ccc(-c2nc(C(=O)N3CCOCC3(C)C)c3n2-c2cc(OC(C)C)c(OC)cc2CC3)cc1Cl [Compound 103],> 5000
6,COc1cc2c(cc1OC(C)C)-n1c(-c3cn[nH]c3)nc(C(=O)N3CCOCC3(C)C)c1CC2 [Compound 61],> 5000
7,COc1cc2c(cc1OC(C)C)-n1c(C3=CCCN(C)C3)nc(C(=O)N3CCOCC3(C)C)c1CC2 [Compound 93],> 5000
8,COc1cc2c(cc1OC(C)C)-n1c(C3=CCCC3(C)C)nc(C(=O)N3CCOCC3(C)C)c1CC2 [Compound 100],< 100
9,COc1cc2c(cc1OC(C)C)-n1c(-c3cncn3C)nc(C(=O)N3CCOCC3(C)C)c1CC2 [Compound 47],> 5000
10,COc1cc2c(cc1OC(C)C)-n1c(-c3cscc3C)nc(C(=O)N3CCOCC3(C)C)c1CC2 [Compound 120],< 100
11,COc1cc2c(cc1OC(C)C)-n1c(-c3sccc3C)nc(C(=O)N3CCOCC3(C)C)c1CC2 [Compound 60],100 to 1000
12,COc1cc2c(cc1OC(C)C)-n1c(-c3cccc4c3OCO4)nc(C(=O)N3CCOCC3(C)C)c1CC2 [Compound 141],100 to 1000
13,"COc1cc2c(cc1CC(C)C)-n1c(-c3cccs3)nc(C(=O)NC3(C)COC3)c1CC2 [Compound 55, 8-Isobutyl-7-methoxy-1-thiophen-2-yl-4,5-dihydro-imidazo[1,5-a]quinoline-3-carboxylic acid (3-methyl-oxetan-3-yl)-amide]",100 to 1000
14,"COc1cc2c(cc1CC(C)C)-n1c(-c3cccs3)nc(C(=O)N3CCCC34COC4)c1CC2 [Compound 57, (8-Isobutyl-7-methoxy-1-thiophen-2-yl-4,5-dihydro-imidazo[1,5-a]quinolin-3-yl)-(2-oxa-5-aza-spiro[3.4]oct-5-yl)-methanone]",1000 to 5000
15,COc1cc2c(cc1OC(C)C)-n1c(-c3ccc(F)c(C(F)(F)F)c3)nc(C(=O)N3CCOCC3(C)C)c1CC2 [Compound 111],1000 to 5000
16,"COc1cc2c(cc1CC(C)C)-n1c(-c3cccs3)nc(C(=O)NCCNC(C)=O)c1CC2 [Compound 48, 8-Isobutyl-7-methoxy-1-thiophen-2-yl-4,5-dihydro-imidazo[1,5-a]quinoline-3-carboxylic acid (2-acetylamino-ethyl)-amide]",1000 to 5000
17,COc1ccc(-c2nc(C(=O)N3CCOCC3(C)C)c3n2-c2cc(OC(C)C)c(OC)cc2CC3)c(C)c1 [Compound 128],1000 to 5000
18,CCn1nccc1-c1nc(C(=O)N2CCOCC2(C)C)c2n1-c1cc(OC(C)C)c(OC)cc1CC2 [Compound 92],100 to 1000
19,"COc1cc2c(cc1OC(C)C)-n1c(C3CCCCO3)nc(C(=O)N3CCOCC3(C)C)c1CC2 (centres unmarked) [Compound 85, (3,3-Dimethyl-morpholin-4-yl)-[8-isopropoxy-7-methoxy-1-(tetrahydro-pyran-2-yl)-4,5-dihydro-imidazo[1,5-a]quinolin-3-yl]-methanone]",> 5000
20,COc1cc2c(cc1OC(C)C)-n1c(-c3cc(C)sc3C)nc(C(=O)N3CCOCC3(C)C)c1CC2 [Compound 129],100 to 1000

# Results, then the compound that gave them:
row,EC50 [nM],SMILES
1,1000 to 5000,CCCn1nc(C)cc1-c1nc(C(=O)N2CCOCC2(C)C)c2n1-c1cc(OC(C)C)c(OC)cc1CC2 [Compound 91]
2,100 to 1000,COc1cc2c(cc1OC(C)C)-n1c(-c3ccc(C)cc3)nc(C(=O)N(C)C(C)(C)C)c1CC2 [Compound 63]
3,100 to 1000,"COc1cc2c(cc1NC(=O)C(C)C)-n1c(-c3cccs3)nc(C(=O)N3CCOCC3(C)C)c1CC2 [Compound 78, N-[3-(3,3-Dimethyl-morpholine-4-carbonyl)-7-methoxy-1-thiophen-2-yl-4,5-dihydro-imidazo[1,5-a]quinolin-8-yl]-isobutyramide]"
4,> 5000,COc1cc2c(cc1OC(C)C)-n1c(-c3cn(C)nn3)nc(C(=O)N3CCOCC3(C)C)c1CC2 [Compound 52]
5,1000 to 5000,COc1ccc(-c2nc(C(=O)N3CCOCC3(C)C)c3n2-c2cc(OC(C)C)c(OC)cc2CC3)cc1C [Compound 125]
6,100 to 1000,"COc1cc2c(cc1CC(C)C)-n1c(-c3cc(C)cs3)nc(C(=O)N(C)C(C)(C)C)c1CC2 [Compound 95, 8-Isobutyl-7-methoxy-1-(4-methyl-thiophen-2-yl)-4,5-dihydro-imidazo[1,5-a]quinoline-3-carboxylic acid tert-butyl-methyl-amide]"
7,1000 to 5000,COc1cc2c(cc1OC(C)C)-n1c(-c3ccc(C#N)cc3)nc(C(=O)N(C)C(C)(C)C)c1CC2 [Compound 64]
8,1000 to 5000,"[2H]C([2H])([2H])NC(=O)c1cc2c(cc1OC)CCc1c(C(=O)N(C)C(C)(C)C)nc(-c3cccs3)n1-2 [Compound 90, 7-Methoxy-1-thiophen-2-yl-4,5-dihydro-imidazo[1,5-a]quinoline-3,8-dicarboxylic acid 3-(tert-butyl-methyl-amide) 8-methyl-d3-amide]"
9,100 to 1000,"COc1cc2c(cc1CC(C)C)-n1c(-c3ccn(C)n3)nc(C(=O)N3CCOCC3(C)C)c1CC2 [Compound 29, (3,3-Dimethyl-morpholin-4-yl)-[8-isobutyl-7-methoxy-1-(1-methyl-1H-pyrazol-3-yl)-4,5-dihydro-imidazo[1,5-a]quinolin-3-yl]-methanone]"
10,> 5000,"COCCCc1nc(C(=O)N2CCOCC2(C)C)c2n1-c1cc(OC(C)C)c(OC)cc1CC2 [Compound 82, (3,3-Dimethyl-morpholin-4-yl)-[8-isopropoxy-7-methoxy-1-(3-methoxy-propyl)-4,5-dihydro-imidazo[1,5-a]quinolin-3-yl]-methanone]"
11,> 5000,"COc1cc2c(cc1OC(C)C)-n1c(C#N)nc(C(=O)N3CCOCC3(C)C)c1CC2 [Compound 145, 3-(3,3-Dimethyl-morpholine-4-carbonyl)-8-isopropoxy-7-methoxy-4,5-dihydro-imidazo[1,5-a]quinoline-1-carbonitrile]"
12,> 5000,"COc1cc2c(cc1OC(C)C)-n1c(Br)nc(C(=O)N(C)C(C)(C)C)c1CC2 [Compound 4, 1-Bromo-8-isopropoxy-7-methoxy-4,5-dihydro-imidazo[1,5-a]quinoline-3-carboxylic acid tert-butyl-methyl-amide]"
13,> 5000,COc1cc2c(cc1OC(C)C)-n1c(C3=CCNCC3)nc(C(=O)N3CCOCC3(C)C)c1CC2 [Compound 131]
14,1000 to 5000,"COc1cc2c(cc1CC(C)C)-n1c(-c3cccn3C(=O)OC(C)(C)C)nc(C(=O)N3CCOCC3(C)C)c1CC2 [Compound 26, 2-[3-(3,3-Dimethyl-morpholine-4-carbonyl)-8-isobutyl-7-methoxy-4,5-dihydro-imidazo[1,5-a]quinolin-1-yl]-pyrrole-1-carboxylic acid tert-butyl ester]"
15,1000 to 5000,COc1cc2c(cc1OC(C)C)-n1c(-c3cncs3)nc(C(=O)N3CCCN(C(=O)N4CCC4)CC3)c1CC2 [Compound 9]
16,100 to 1000,CCCn1nccc1-c1nc(C(=O)N2CCOCC2(C)C)c2n1-c1cc(OC(C)C)c(OC)cc1CC2 [Compound 88]
17,1000 to 5000,COc1cc2c(cc1OC(C)C)-n1c(-c3ccccc3OC)nc(C(=O)N(C)C(C)(C)C)c1CC2 [Compound 62]
18,< 100,"[2H]C([2H])([2H])N(C(=O)c1nc(-c2cccs2)n2c1CCc1cc(OC)c(CC(C)C)cc1-2)C1(C)COC1 [Compound 58, 8-Isobutyl-7-methoxy-1-thiophen-2-yl-4,5-dihydro-imidazo[1,5-a]quinoline-3-carboxylic acid methyl-d3-(3-methyl-oxetan-3-yl)-amide]"
